Assay results as given in patent US10902592B2, “Analysis of images of biological material” (Q-linea AB, priority 2016, dated 2021).

Key:
Type in all cases: cell-based
[1] = tested on: E. coli; test: Microscopy of E. coli grown in presence of antibiotics (FIGS. 7a-d); details: for morphological change of the pathogen: E. coli grown for three hours in presence of the antibiotic, microphotographs
Excerpt: (§1) FIGS. 7a to 7j show the effect of antibiotics on the morphology of various pathogens. The microphotographs in a) to d) show E. coli grown for three hours either a) in absence of any antibiotics, b) and c) in presence of the antibiotic ceftazidime in different concentrations, and d) or in presence of the antibiotic meropenem. It is clear that the morphological change is not only dependent on the type of antibiotics but is also dose dependent. […] The strain of E. coli shown in these Figures is meropenem sensitive. The microphotographs in e) to g) show P.aureginosa grown for three hours either e) in absence of any antibiotics, f) in presence of the antibiotic ceftazidime or g) in presence of the antibiotic meropenem. […] The P.aureginosa strain shown is meropenem sensitive. The microphotographs of h) to j) show P. mirabilis grown for three hours either h) in absence of any antibiotics, i) in presence of the antibiotic ceftazidime or j) in presence of the antibiotic meropenem. […] The P. mirabilis strain shown is meropenem sensitive.

[2] = tested on: P.aureginosa; test: Microscopy of P.aureginosa grown in presence of antibiotics (FIGS. 7e-g); details: for morphological change of the pathogen: P.aureginosa grown for three hours in presence of the antibiotic, microphotographs
Excerpt: as §1

[3] = tested on: P. mirabilis; test: Microscopy of P. mirabilis grown in presence of antibiotics (FIGS. 7h-j); details: for morphological change of the pathogen: P. mirabilis grown for three hours in presence of the antibiotic, microphotographs
Excerpt: as §1

Row | Structure (SMILES) | morphological change of the pathogen [1] | morphological change of the pathogen [2] | morphological change of the pathogen [3] | sensitivity of the strain shown to the antibiotic ([1]; E. coli strain shown in the Figures) | sensitivity of the strain shown to the antibiotic ([2]; P.aureginosa strain shown) | sensitivity of the strain shown to the antibiotic ([3]; P. mirabilis strain shown)
1 | CC(C)(O/N=C(\C(=O)N[C@@H]1C(=O)N2C(C(=O)[O-])=C(C[n+]3ccccc3)CS[C@H]12)c1csc(N)n1)C(=O)O [ceftazidime] | thread-like change in morphology | “cluster threads” instead of individual threads | a combination of “swelling” and threads |  |  | 
2 | C[C@@H](O)[C@H]1C(=O)N2C(C(=O)O)=C(S[C@@H]3CN[C@H](C(=O)N(C)C)C3)[C@H](C)[C@H]12 [meropenem] | “swelling” of the pathogen | the same morphological change occurs | the same morphological change occurs | sensitive | sensitive | sensitive
